Assays:
[1] = tested on: skin swelling response in type IV allergic dermatitis model; assay: Skin swelling response in type IV allergic dermatitis model; format: in vivo; details: BALB/c mouse, 24 hours after induction
Protocol: (§1) The action of Compound (I) on skin swelling response in mouse allergic dermatitis models was studied. As the allergic dermatitis models, models partially modified from a type I allergic dermatitis model and a type IV allergic dermatitis model described in documents (Inflamm. Res., 1998, Vol. 47, pp. 506-511 and Int. Arch. Allergy. Appl. Immunol., 1990, Vol. 92, pp. 356-360) were used.
To the back of each BALB/c mouse (female, 7-week old, Charles River Laboratories Japan, Inc.), 25 μL of 0.5% DNFB solution dissolved in acetone:olive oil (4:1) was applied. On the next day, the same operations were repeated to actively sensitize the mouse. Four days after the sensitization, 20 μL of 0.2% DNFB solution dissolved in acetone:olive oil (4:1) was applied to the auricle of the sensitized mouse to induce inflammation. Twenty four hours after the induction, the thickness of the auricle was measured using a Digimatic Indicator (Mitutoyo). Each test compound was dissolved in ethanol and 20 μL of 0.5 w/v % solution was applied to the auricle at 1 hour before the induction; or each test compound was suspended in 0.5% methylcellulose (Wako Pure Chemical Industries, Ltd.) and the resulting solution was orally administered at 30 mg/kg at 1 hour before the induction. The swelling ratio of the auricle was calculated according to the following equation: Auricular Swelling Ratio(%)=(A−B)/B×100

[2] = tested on: colonic disorders in DSS-induced chronic colitis model; assay: Colonic disorders in DSS-induced chronic colitis model; format: in vivo; details: BALB/c mouse, oral 10 mg/kg once Day 27, twice a day Day 28-31; scores Day 28-32
Description: (§2) The action of Compound (I) on colonic disorders in inflammatory bowel disease models was studied. As the inflammatory bowel disease models, models partially modified from a TNBS-induced colitis model and a DSS-induced chronic colitis model described in documents (Gastroenterology, 1989, Vol. 96, pp. 29-36 and Am. J. Physiol. Gastrointest. Liver Physiol., 2004, Vol. 287, pp. G115-124) were used.
To each BALB/cCrSlc mouse (female, 9-week old, Japan SLC, Inc.), DSS (Molecular Weight: 36-50 kDa; MP Biomedicals) dissolved in sterile ultrapure water was administered via free drinking for 5 days from the day of the start of the administration via drinking water (this day was considered as Day 0 after the start of the administration via drinking water), and then switched to administration of sterile ultrapure water via free drinking for 5 days. This cycle was repeated again, and DSS was further administered via free drinking for another 7 days to produce the colitis model. As an index of colitis symptoms, stool consistency scores were used. The stool consistency scores were based on the following criteria: normal stool was defined as score 0; loose stool was defined as score 2; and diarrhea was defined as score 4. […]

[3] = tested on: skin swelling response in type I allergic dermatitis model; assay: Skin swelling response in type I allergic dermatitis model; format: in vivo; details: BALB/c mouse, 20 μL of 0.5 w/v % solution applied to auricle 1 hour before induction
Description: as §1
To each BALB/c mouse (female, 7-week old, Charles River Laboratories Japan, Inc.), mouse IgE anti-DNP antibody (0.05 mg/body, […] CORPORATION) was intravenously administered to passively sensitize the mouse. Twenty four hours after the sensitization, 20 μL of 0.38% DNFB (SIGMA) dissolved in acetone:olive oil (4:1) was applied to the auricle of the mouse to induce inflammation. From after the induction to 24 hours, the thickness of the auricle was measured with time using a Digimatic Indicator (Mitutoyo). Each test compound was dissolved in ethanol, and 20 μL of 0.5 w/v % solution was applied to the auricle at 1 hour before the induction.
The swelling ratio of the auricle was calculated according to the following equation. […] Auricular Swelling Ratio(%)=(A−B)/B×100

[4] = molecular target: human p38 MAPK α (Homo sapiens (Human), UniProt Q16539); assay: Evaluation of p38 MAPK inhibitory activity (Alpha Screen, ATF2 phosphorylation); format: biochemical; details: p38α/SAPK2a 1.5 nM, ATP 100 μM, biotinylated ATF2 30 nM
Protocol: Using human p38 MAPK α, the p38 MAPK inhibitory activity of Compound (I) was studied by a method partially modified from the method described in Current Medicinal Chemistry (2004, No. 11, pp. 721-730).
A solution of each test compound solution in 100% DMSO and a p38α/SAPK2a solution (Final Concentration: 1.5 nM) (Invitrogen) were added to a 384-well plate, and then the plate was incubated at room temperature in a dark place for 1 hour. Thereafter, ATP (Final Concentration: 100 μM), which is a phosphate donor, and biotinylated ATF2 (Final Concentration: 30 nM) (upstate), which is a substrate, were added, and the resulting mixture was allowed to react at room temperature in a dark place for 1 hour (the final concentration of DMSO was 0.25%). After the reaction, an anti-phosphorylated ATF2 antibody (Final Concentration: 1 nM) (Cell Signaling), anti-IgG acceptor beads (Final Concentration: 20 μg/mL) (PerkinElmer) and streptavidin donor beads (Final Concentration: 20 μg/mL) (PerkinElmer) were added, and the resultant was incubated at room temperature in a dark place for 1 hour. Using a microplate analyzer (Fusion-α, Packard) in Alpha Screen method (Amplified Luminescent Proximity Homogeneous Assay), the light emission was detected. The IC50 value of each compound was calculated by sigmoidal dose-response regression using Prism 4.02 (GraphPad Software, Inc.).

[5] = tested on: TNFα production; assay: Cytokine production suppressing activity using human whole blood (LPS stimulation); format: cell-based; details: LPS 200 ng/mL, 37° C., 5 hours
Protocol: Using human whole blood, the inhibitory action of Compound (I) on the TNFα production by LPS stimulation was studied by a method partially modified from the method described in Journal of Medicinal Chemistry (2003, Vol. 46, pp. 4676-4686).
A solution of each test compound in 100% DMSO and human blood were mixed in a 96-well flat-bottom plate. Thereafter, LPS (Final Concentration: 200 ng/mL) was added, and the resulting mixture was allowed to react at 37° C. for 5 hours (the final concentration of DMSO was 0.2%). After the reaction, the resultant was centrifuged for 20 minutes at room temperature, and the supernatant was collected. For the measurement of the TNFα amount in the supernatant, a human cytokine kit (CIS bio international) was used. As a comparative control compound, Comparative Compound 2 was used.

[6] = tested on: colonic disorders in TNBS-induced colitis model; assay: Colonic disorders in TNBS-induced colitis model; format: in vivo; details: Wistar rat, oral 3 mg/kg once on TNBS day then twice a day for 4 days, colon 5 days after TNBS
Description: as §2
To each Slc:Wistar rat (male, 12-week old, Japan SLC, Inc.), TNBS (Wako Pure Chemical Industries, Ltd.) dissolved in ethanol was rectally administered under anesthesia, and the TNBS solution was held in the rectum for 1 hour to produce the colitis model. These rats had been fasted from 2 days before the TNBS administration to the day of the TNBS administration. Five days after the TNBS administration, the colon was isolated from the each rat, and the macroscopic damage score (which is a total of adhesion score, diarrhea score and ulcer score) was recorded as an index of damage in the colon. The macroscopic damage score was calculated based on the scores of Dubigeon et al. (Eur. J. Pharmacol., 2001, Vol. 431, pp. 103-110) and the scores of Venkova et al. (J. Pharmacol. Exp. Ther., 2004, Vol. 308, pp. 206-213). […]

[7] = tested on: TNFα production; assay: Mouse LPS-induced cytokine production model; format: in vivo; details: BALB/c mouse, 50 mg/kg oral 30 minutes before LPS 1 mg/kg i.p., serum 60 minutes after LPS
Protocol: The action of Compound (I) on the TNFα production induced by LPS administration in a mouse was studied by a method partially modified from the method described in Journal of Immunology (1992, Vol. 148, pp. 1890-1897).
To each BALB/c mouse (male, 7 to 9-week old, Charles River Laboratories Japan, Inc.), LPS (0111:B4, SIGMA) was intraperitoneally administered at a dose of 1 mg/kg. Sixty minutes after the LPS administration, blood was collected from the abdominal vena cava under anesthesia and centrifuged for 15 minutes at 4° C. to obtain a serum. For the measurement of TNF-α in the serum, ELISA Development System (R&D Systems) was used. Each test compound was dissolved in DMSO (Final Concentration: 2%), and then the obtained solution was dissolved in a 27% aqueous solution of 2-hydroxypropyl-β-cyclodextrin (hereinafter referred to as “HP-β-CD”; Nihon Shokuhin Kako Co., Ltd.). Thirty minutes before the LPS administration, the resulting solution was orally administered at 50 mg/kg.

[8] = Metabolic stability in human CYP (human liver microsomes); format: in vitro ADME; details: human liver microsomes 0.5 mg/mL, NADPH, 37° C., comparative control compounds 5 μM
Protocol: Each test compound was mixed at a concentration of 2 μM with a phosphate buffer solution containing Human liver microsomes (Xenotech) in an amount of 0.5 mg/mL. Thereafter, NADPH was added thereto, and the obtained mixture was allowed to react at 37° C. for up to 30 minutes. The reaction was terminated by adding acetonitrile, and then the resultant was centrifuged for 10 minutes at 4° C. to collect a supernatant. The supernatant was pretreated by methanol extraction method, and the concentration of the compound was analyzed by LC/MS/MS (ESI positive mode). The compound remaining rate was calculated from the obtained concentration of the compound.

[9] = tested on: hyperalgesia in Bennett model; assay: Hyperalgesia in neuropathic pain model (Bennett model), plantar test; format: in vivo; details: SD rat, Bennett model day 14, oral 100 mg/kg, 90 minutes after administration; FIG. 2
Description: The action of Compound (I) on hyperalgesia in pain models was studied. As the pain models, models partially modified from an inflammatory pain model (a carrageenin paw edema pain model) and neuropathic pain models (Bennett model and Chung model) described in documents (Anesth. Analg., 2009, Vol. 108, pp. 1680-1687; Pain, 1988, Vol. 33, pp. 87-107; and Pain, 1992, Vol. 50, pp. 355-363) were used.
The Bennett model was produced by lightly ligating the sciatic nerve in the left thigh of each Crl:CD (SD) rat (male, 6-week old, Charles River Laboratories Japan, Inc.) at 4 points with chromic catgut (4-0). Fourteen days after the Bennett model was produced, each test compound was orally administered, and plantar test was performed 90 minutes after the administration. The plantar test was carried out by measuring the pain threshold (sec) of the left footpad (model foot) using a plantar thermal stimulation device (Plantar test 7370, Ugo Basile) wherein the thermal stimulus intensity was set to 60. Each test compound was suspended in 0.5 w/v % methylcellulose (Wako Pure Chemical Industries, Ltd.) and the obtained solution was orally administered. Compound 46b described in the Examples was administered at a dose of 100 mg/kg, and gabapentin (Toronto Research Chemicals), which is an anticonvulsant, was administered as a comparative control agent at a dose of 100 mg/kg.

Chain of human p38 MAPK α (Q16539 whole entry): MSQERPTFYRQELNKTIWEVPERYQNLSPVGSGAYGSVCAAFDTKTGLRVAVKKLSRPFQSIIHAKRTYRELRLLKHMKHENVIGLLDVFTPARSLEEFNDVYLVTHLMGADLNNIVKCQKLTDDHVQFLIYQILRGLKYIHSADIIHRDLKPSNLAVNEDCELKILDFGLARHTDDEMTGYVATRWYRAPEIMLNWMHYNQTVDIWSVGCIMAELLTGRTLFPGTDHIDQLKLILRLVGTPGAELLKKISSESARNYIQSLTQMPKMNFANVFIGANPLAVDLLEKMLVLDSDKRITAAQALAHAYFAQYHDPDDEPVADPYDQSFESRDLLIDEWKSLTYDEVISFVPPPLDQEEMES

COc1c(NC(=O)N[C@H]2Cc3c(F)cccc3[C@H]2O)cc(C(C)(C)C)cc1[C@@H](O)C(F)(F)F (single isomer, unassigned) [Compound 50b]
suppression ratio of auricular swelling, oral administration ([1]; 30 mg/kg oral 1 hour before induction): 54.4% | suppression ratio of auricular swelling, auricular application ([1]; 20 μL of 0.5 w/v % solution on auricle 1 hour before induction): 48.0% | stool consistency score (total) [2]: 6.5±0.6 | suppression ratio on immediate response (auricular swelling AUC 0-4 hours) [3]: 33.4% | suppression ratio on late response (auricular swelling AUC 5-10 hours) [3]: 50.2% | IC50 [4]: 35 nM | IC50 [5]: 46 nM | macroscopic damage score [6]: 5.2±1.1

COc1c(NC(=O)N[C@@H]2Cc3ccccc3[C@@H]2O)cc(C(C)(C)C)cc1C(C)(C)C#N [Comparative Compound 3, 1-(5-tert-butyl-3-(2-cyanopropan-2-yl)-2-methoxyphenyl)-3-((1S,2R)-1-hydroxy-2,3-dihydro-1H-indene-2-yl)urea, reference compound]
Suppression Ratio of TNFα production [7]: 17.0% | microsomal CLint at 5 μM [8]: 450 µL/min/mg

NCC1(CC(=O)O)CCCCC1 [gabapentin, reference compound]
pain threshold (sec), plantar test, compared to solvent-administered group [9]: significant difference

Source: US8653304B2, “2,3-dihydro-1H-indene-2-yl urea derivative and pharmaceutical application of same” (Toray Industries, Inc., priority 2009, dated 2014)
